From publication PMC7504728, “Bioactivities of Lyngbyabellins from Cyanobacteria of Moorea and Okeania Genera” (Molecules, 2020)
Like-named read-outs stand apart in the source and are kept apart here.

Assays:
[1] = test system: MCF7 breast cancer cells; test: Cytotoxicity MTT assay on MCF7 breast cancer cells; assay type: cell-based, human; conditions: MTT after 72 h incubation; for IC50: 37 °C, read-out: IC50, cytotoxicity with respect to MCF7 breast cancer cells
Experimental: The cytotoxicity of the compounds was determined according to a procedure reported previously. MCF7 breast cancer cells were maintained in RPMI-1640 medium with 10% fetal bovine serum (FBS). The cells were plated into 96-well plates with a density of 1.0 × 10^4 cells per well. After 24 h incubation, the cells were exposed to different concentrations of compounds, with cisplatin as a positive control and with 1% filtered ethanol as a negative control. The MTT assay was conducted after 72 h of incubation at 37 °C and 5% CO2.

[2] = test system: Amphibalanus amphitrite barnacle larvae; test: Antifouling (settlement inhibition) assay on A. amphitrite cyprids; assay type: in vivo
Experimental: As for all the compounds, the activity remained after 120 h of exposure.
The antifouling activity of the compounds was determined according to a procedure reported previously. Briefly, the newly developed cyprids of A. amphitrite were tested against several different concentrations of the isolated compounds (1–5) (0.03–10 μg/mL) in triplicate (n = 3). The assays were conducted using 24-well polystyrene culture plates, with each well containing 2 mL seawater and six cyprids. […] The total number of dead cyprids was counted after 120 h of exposure. Antifouling activity was expressed as an EC50 according to Probit analysis. CuSO4 was used as a positive control and 80% filtered (0.20 µm of pore filter) natural seawater (diluted with deionized water) as a negative control.

[3] = test system: HT29, HeLA, MCF7; conditions: range over HT29, HeLA, MCF7 value from current study; cited from earlier work
Description: (§1) Table 2 Diversity of biological activities reported for Lyngbyabellins in the literature from 2000 to 2020. | column: IC50 (µM)

[4] = test system: Plasmodium; conditions: antimalarial, cited from earlier work
Description: Table 1 Structural diversity and antimalarial potential of secondary metabolites derived from cyanobacteria. | column: IC50 (µM)

[5] = test system: Plasmodium; conditions: antimalarial; pLDH; cited from earlier work
Description: (§2) Table 1 Structural diversity and antimalarial potential of secondary metabolites derived from cyanobacteria. | column: IC50 (µM) || As part of an effort to identify antiplasmodial and antifouling metabolites, two cyanobacteria from two geographically distinct environments were studied: a Malaysian Moorea bouillonii and a Red Sea Okeania sp. Moorea and Okeania genera were delineated from the Lyngbya genus. As phylogenetically close genera, they produce similar compounds. In this study, the lyngbyabellin family depsipeptides were isolated from Moorea bouillonii and Okeania sp. These kinds of compounds were initially found in the sea hare Dolabella auricularia after being identified from cyanobacterial origins as p ...

[6] = test system: various cancer cell lines; conditions: cited from earlier work
Description: as §2, with “As” for “Table 1 Structural diversity and antimalarial potential of secondary metabolites derived from cyanobacteria. | column: IC50 (µM) || As”

[7] = test system: HT29, HeLA, CA46, PtK2; conditions: range over HT29, HeLA; cited from earlier work
Description: as §1

[8] = test system: KB, LoVo; conditions: range over KB; cited from earlier work
Description: as §1

[9] = test system: KB; conditions: cited from earlier work
Description: as §1

[10] = test system: H460, Neuro-2a; conditions: range over H460, Neuro-2a; cited from earlier work
Description: as §1

[11] = test system: HT29, HeLA; conditions: range over HT29, HeLA; cited from earlier work
Description: as §1

[12] = test system: H460; conditions: cited from earlier work
Description: as §1

[13] = test system: H460, HCT116; conditions: range over H460, HCT116; cited from earlier work
Description: as §1

[14] = test system: Plasmodium falciparum strain FCR-3; test: Antiplasmodial assay, Giemsa staining; assay type: cell-based
Experimental: Compound 1 isolated from Okeania sp., and compounds 6 and 7 from M. bouillonii were tested against the malaria parasite (P. falciparum). […] The assay was repeated three times in the concentration range of 0.05–10 (μg/mL). It is noteworthy that the mechanisms of antiplasmodial compounds isolated from M. bouillonii impeding the growth of Plasmodium are still unclear. […] However, as 1 and 7 were reported as cytotoxic towards cancer cells, we hypothesized that they act in the same way on erythrocytes, which distorts the results of the antimalarial assay.
The Giemsa staining method previously described by Aydin-Schmidt was used to evaluate the ability of compounds to inhibit the malaria parasite. A synchronized culture of Plasmodium falciparum strain FCR-3, the late-ring stage, was used (parasitemia 2%) for this assay. A series of compound concentrations were applied in 96-well microplates and incubated for 72 h at 37 °C in a reduced oxygen atmosphere. Compounds 1, 6, and 7 were dissolved in DMSO and tested in triplicate at three separate times. Chloroquine was used as a positive control and cultured medium with 1% DMSO (final concentration of solvent in all compound tested) as a negative control. Each assay was conducted in triplicate (n = 3). After 72 h, the parasitic level was evaluated by Giemsa and light microscopy. The inhibition level of compounds against Plasmodium was calculated using the formula previously reported.

[15] = test system: HT29, HeLA, KB, LoVo; conditions: range over HT29, HeLA; cited from earlier work
Description: as §1

[16] = test system: P. falciparum (liver-stage); conditions: cited from earlier work
Description: as §1

[17] = test system: H460, Neuro-2a, MCF7; conditions: range over H460, Neuro-2a, cited from earlier work
Description: as §1

[18] = test system: MCF7 breast cancer cells; conditions: cited from earlier work
Description: These differences in cytotoxicity were attributed to the dissimilarities in their structures.

[19] = test system: Amphibalanus amphitrite barnacle larvae; design: method as in PMID 29019684; conditions: A.amphitrite barnacle cypris; cited from earlier work
[20] = A.amphitrite barnacle cypris, current study
[21] = strain FCR-3, late-ring (intraerythrocytic) stage, parasitemia 2%, 72 h, 37 °C, 0.05–10 μg/mL, repeated three times, triplicate, read-out: IC50 against malaria parasite (P. falciparum)
[22] = previous study, read-out: IC50, cytotoxicity with respect to MCF7 breast cancer cells

With 27-deoxylyngbyabellin A [Compound 5] as the compound, how does the IC50 [1] read?
Its IC50 is 0.31 µM.

What about the EC50 [2, 20] of the same compound?
The EC50 was 0.09 µg/mL.

And the “Toxicity to A.amphitrite barnacle cypris (remark in EC50 cell)” value ([2]; current study)?
Its value is 0.09 (but toxic).

And the Toxicity to larvae ([2]; exposed to 1 µg/mL, dead cyprids counted after 120 h of exposure)?
Its Toxicity to larvae is “almost all the larvae were dead”.

And the IC50 [3]?
The IC50 was 0.0073 to 0.31 µM.

Which IC50 ([4]; Sybr Green) does the source give for `C/C1=C/C(=O)O[C@H](C(C)(C)C)CCC[C@H](O)CCC[C@H](O)CCC[C@H](O)CCC[C@@H](O)C[C@@H](O)C[C@H](O)CCC[C@@H](O)CCC[C@@H](O)C[C@@H](O)CCCCC1` [Bastimolide A] here?
The IC50 was 0.27 µM.

Which IC50 ([4]; Pico-Green) does the source give for `C/C1=C/C(=O)O[C@H](CCC[C@@H](O)CCC[C@@H](O)CCC[C@@H](O)CCC[C@H](O)C(C)(C)C)C[C@@H](O)C[C@H](O)CCC[C@@H](O)CCC[C@@H](O)C[C@@H](O)CCCCC1` [Bastimolide B] here?
Its IC50 is 5.7 µM.

With Carmabin A as the compound, how does the IC50 ([4]; Pico-Green) read?
The IC50 was 4.3 µM.

With Companeramide A as the compound, how does the IC50 ([4]; Sybr Green) read?
The IC50 was 5.7 µM.

With Dolastatin 10 as the compound, how does the IC50 [5] read?
The IC50 was 0.0001 µM.

And the “Selectivity index against various cancer cell lines” value [6]?
The value was ≤ 1.

With Dolastatin 15 as the compound, how does the IC50 [5] read?
The IC50 was 0.0024 µM.

Which IC50 ([4]; Pico-Green) does the source give for Dragomabin here?
The IC50 was 6 µM.

Which IC50 ([4]; Pico-Green) does the source give for Gallinamide A here?
The IC50 was 8.4 µM.

For Hoshinoamide A, which IC50 [5] is on record?
The IC50 was 5.2 µM.

With Ikoamide as the compound, how does the IC50 [5] read?
The IC50 was 0.14 µM.

For Kakeromamide B, which IC50 ([4]; Sybr Green) is on record?
Its IC50 is 8.9 µM.

For Lyngbyabellin B, which IC50 [7] is on record?
Its IC50 is 0.1 to 1.1 µM.

With Lyngbyabellin C as the compound, how does the IC50 [8] read?
The IC50 was 2.1 to 5.3 µM.

For Lyngbyabellin D, which IC50 [9] is on record?
Its IC50 is 0.1 µM.

With Lyngbyabellin E as the compound, how does the IC50 [10] read?
The IC50 was 0.4 to 1.2 µM.

Which IC50 [10] does the source give for Lyngbyabellin F here?
The IC50 was 1 to 1.8 µM.

Which IC50 [10] does the source give for Lyngbyabellin I here?
Its IC50 is 0.7 to 1 µM.

With Lyngbyabellin J as the compound, how does the IC50 [11] read?
The IC50 was 0.041 to 0.054 µM.

With Lyngbyabellin K as the compound, how does the “IC50 (µM)” value [12] read?
The value was “Inactive”.

With Lyngbyabellin L as the compound, how does the “IC50 (µM)” value [12] read?
The value was “Inactive”.

Which “IC50 (µM)” value [12] does the source give for Lyngbyabellin M here?
Its value is “Inactive”.

For Lyngbyabellin N, which IC50 [13] is on record?
The IC50 was 0.0048 to 1.8 µM.

Which IC50 [5] does the source give for Mabunamide here?
Its IC50 is 1.4 µM.

Which IC50 ([4]; Sybr Green) does the source give for Ulongamide A here?
The IC50 was 0.99 µM.

Which IC50 ([4]; Pico-Green) does the source give for Venturamide A here?
The IC50 was 8.2 µM.

With homohydroxydolabellin [Compound 6] as the compound, how does the “Cytotoxicity towards MCF7 cells” value [1] read?
The value was > 50 µg/mL.

And the “Cytotoxicity with respect to MCF7 breast cancer cells (in words)” value [1]?
The value was “non-cytotoxicity”.

And the IC50 [14, 21]?
Its IC50 is 6.4 µM.

For lyngbyabellin A [Compound 7], which IC50 ([4]; Sybr Green) is on record?
The IC50 was 0.0015 µM.

What about the IC50 [15] of the same compound?
Its IC50 is 0.021 to 0.345 µM.

And the IC50 [16]?
The IC50 was 0.0015 µM.

What about the IC50 ([14]; P.falciparum (intraerythrocytic stage), current study, read-out: IC50) of the same compound?
The IC50 was 0.3 µM.

Which IC50 [17] does the source give for lyngbyabellin G [Compound 1] here?
The IC50 was 2.2 to 120 µM.

What about the IC50 [18, 22] of the same compound?
The IC50 was 120 µM.

And the IC50 [14, 21]?
The IC50 was 1.1 µM.

What about the “EC50” value [19] of the same compound?
Its value is 4.41 µg/mL.

With lyngbyabellin H [Compound 4] as the compound, how does the IC50 [1] read?
Its IC50 is 0.07 µM.

What about the “Antifouling activity at 10 µg/mL” value ([2]; 10 µg/mL, 48 h exposure, triplicate (n = 3)) of the same compound?
Its value is “inactive”.

And the “EC50(µg/mL)” value [2, 20]?
The value was “Inactive”.

And the IC50 ([17]; MCF7 value from current study)?
Its IC50 is 0.07 to 1.4 µM.

Which results are given for lyngbyabellin O [Compound 2]?
IC50 (µM) ([18]; MCF7): Inactive; IC50 [18, 22]: > 160 µM; EC50 [19]: 0.24 µg/mL

Which IC50 ([18]; MCF7, read-out: IC50) does the source give for lyngbyabellin P [Compound 3] here?
Its IC50 is 9 µM.

What about the “EC50” value [19] of the same compound?
The value was 0.62 µg/mL.
